Data as given in ChEMBL document CHEMBL3132812, “Metabolism-guided drug design” (Medchemcomm, 2013).
One block for each molecule: values may come before it.

Tests used:
[1] = Lipophilicity, log D of the compound at pH 7.4; format: physicochemical; conditions: buffer
Trypsin = Trypsin (Homo sapiens, UniProt P07477+P07478+P35030); assay: Inhibition of trypsin (unknown origin); format: protein assay
Prothrombin = Prothrombin (Homo sapiens, UniProt P00734); assay: Inhibition of thrombin (unknown origin)
[2] = Drug metabolism in rat liver microsomes assessed as oxidative deamination; format: ADME; conditions: read-out: Drug metabolism
[3] = Drug metabolism in rat liver microsomes assessed as N-demethylation; format: ADME; conditions: read-out: Drug metabolism
[4] = Drug metabolism in rat liver microsomes assessed as O-demethylation; format: ADME; conditions: read-out: Drug metabolism
[5] = Half life in monkey; format: ADME, organism-based, Macaca mulatta; conditions: rhesus monkey, in vivo
Homo sapiens [6] = assay: In vivo inhibition of CYP2D6 in patient assessed as inhibition of dextromethorphan to dextrorphan conversion at 20 to 40 mg, qd relative to control; format: ADME, organism-based
[7] = Drug metabolism in human; format: ADME, organism-based; conditions: in vivo, read-out: Drug metabolism
Homo sapiens [8] = assay: In vivo inhibition of CYP2D6 in patient at 20 mg, qd relative to control; format: ADME, organism-based
[9] = Half life in rat; format: ADME, organism-based; conditions: in vivo
[10] = Half life in human plasma at 600 mg, po; format: ADME, organism-based

logD [1]: -1.7
Compound: CNS(=O)(=O)Cc1ccc2[nH]cc(CCN(C)C)c2c1

IC50 (Trypsin): 800 nM
Compound: Cc1nc(N)ccc1CNC(=O)Cn1c(C)cnc(NCC(F)(F)c2ccccn2)c1=O

half-life [5]: 3.1 h
Compound: CC(c1ccoc1)N(O)C(N)=O (stereo not drawn)

half-life [5]: 7.4 h
Compound: C[C@H](C#Cc1ccc(Oc2ccc(F)cc2)o1)N(O)C(N)=O

IC50 (Prothrombin): 0.8 nM
IC50 (Trypsin): 1800 nM
Compound: Cc1nc(N)ccc1CNC(=O)Cn1c(C)cnc(NCCc2ccccc2)c1=O [L-375378]

half-life [5]: < 1 h
half-life [10]: 3 h
Compound: CC(c1cc2ccccc2s1)N(O)C(N)=O (stereo not drawn) [ZILEUTON]

The next lines start with the molecule.

Compound: Cc1cnc(NCC(F)(F)c2ccccn2)c(=O)n1CC(=O)NCc1ncccc1F
IC50 (Trypsin): 252 nM

Compound: N#Cc1cnc(NCC(F)(F)c2ccccn2)c(=O)n1CC(=O)NCc1ncccc1F
IC50 (Prothrombin): 2.3 nM
IC50 (Trypsin): 213 nM

Compound: COc1ccc([C@H]2Cc3c(cccc3C(F)(F)F)N(CCN(C)C)C(=O)[C@H]2OC(C)=O)cc1
metabolised [2]: 53%
metabolised [3]: 31%
metabolised [4]: 8%

Compound: [3H]C1([3H])Oc2ccc(OC[C@@H]3CNCC[C@H]3c3ccc(F)cc3)cc2O1
inhibition (INH) (Homo sapiens [6]): 15%

Compound: [3H]C([3H])([3H])Oc1ccc(C(CN(C([3H])([3H])[3H])C([3H])([3H])[3H])C2(O)CCCCC2)cc1 (stereo not drawn)
metabolised [7]: 50%

Compound: Fc1ccc([C@@H]2CCNC[C@H]2COc2ccc3c(c2)OCO3)cc1 [PAROXETINE]
inhibition (INH) (Homo sapiens [8]): 55%

Compound: CS(=O)(=O)c1ccc(-n2nc(C(F)(F)F)cc2-c2ccc(F)cc2)cc1 [SC-58125]
half-life [9]: > 220 h
